“And” between values parts separate entries of the source, which are not always exact repeats. Equal values may be shown once. Where a name gives a salt, the structure may show the parent alone. Read-outs that look alike come from different tables or passages of the source.
Tests used:
collagenase = details: as reported in Thromb. Res. 1977, 10(4), 605-11; cited from earlier work
[1] = biological target: T1, human skin fibroblast collagenase (Homo sapiens, UniProt P03956); assay: Collagenase Assay, Test Code 006 (degradation of 14C-labeled native collagen fibrils); assay type: biochemical; details: test conc.: 30 μg./ml.
T1 construct: endogenous in cells
T1 sequence (P03956 100-469): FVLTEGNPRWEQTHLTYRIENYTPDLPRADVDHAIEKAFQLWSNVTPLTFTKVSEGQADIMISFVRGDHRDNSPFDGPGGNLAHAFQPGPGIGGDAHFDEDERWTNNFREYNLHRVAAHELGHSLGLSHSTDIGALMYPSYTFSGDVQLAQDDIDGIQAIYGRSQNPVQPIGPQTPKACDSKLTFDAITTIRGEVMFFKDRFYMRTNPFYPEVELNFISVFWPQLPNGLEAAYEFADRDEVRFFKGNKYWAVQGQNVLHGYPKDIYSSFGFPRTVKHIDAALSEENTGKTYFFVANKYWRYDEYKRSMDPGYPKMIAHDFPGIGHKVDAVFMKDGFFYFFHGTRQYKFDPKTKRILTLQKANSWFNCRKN
Description: (§1) An active inhibitor would inhibit the degradation of the collagen fibril; (iii) Leukocyte Neutral Proteases Inhibitor Assay - This test measures the ability of neutral proteases derived from human leukocytes to degrade radiolabeled proteoglycans entrapped in polyacrylamide beads.
Collagenase assays were performed by a modification of the method of Harper, et al., Biochem.,-10, 3035 (1971). In a typical assay (total volume of 0.45 ml.), 100 pI. of the activated enzyme was added to the ^14C-labeled collagen fibrils (250 µl.) followed by 100 pl. of 50 mM cacodylate, pH 7.4, containing 5 mM calcium chloride. After incubation at 37°C. for 16 hours, the tubes were centrifuged in a Beckman microfuge for five minutes at full speed. An aliquot (200 pl.) of the supernatant, representing collagenase digestion products of the fibril, was assayed for radioactivity. […] Appropriate blanks and trypsin controls were run in parallel.
The activities are expressed as % inhibition (lowering) of collagenase activity, i.e. based on the 0% value for the enzyme control.

[2] = test system: fibroblast collagenase and leukocyte neutral protease; assay: Enzymatic Degradation of Collagen of Human Gingiva (hydroxyproline content of residual tissue); assay type: biochemical; details: 36 hours at 37°C., enzymes alone 102.3
Description: The test compounds are able to inhibit the degradation of collagen of gingival tissue. Dried pieces of human gingiva were incubated at 37°C. for 36 hours with fibroblast collagenase and leukocyte neutral protease in the presence of test compound (30 and 50 µg./ml.). Antibiotics were present to prevent bacterial growth. After incubation, the residual tissue was hydrolyzed in 6N hydrochloric acid and the hydroxy-proline content (collagen) was determined. When collagenase and neutral protease were added to human gingiva, approximately 100 µg of collagen/mg. dry tissue was digested. If the test compound was present, degradation of gingival collagen was inhibited.

[3] = test system: Gingival Crevicular Fluid Collagenase; assay: Crevicular Fluid Assay (gingival crevicular fluid collagenase degrading 14C-collagen fibrils); assay type: biochemical, human; details: Diseased crevicular fluid + 30 mcg./ml. of compound; about 90 hours at 37°C.; diseased fluid alone 66 ± 9; p<0.0005
Text: as §1
Since studies by Golub, et al., Dental Res., 55, 1049 (1976) have shown that the crevicular collagenase plays a major role in the degradation of collagen in periodontal tissue, the effect of test compounds on collagen degradation by this system was examined. A volunteer with diagnosed periodontal disease was used. […] After one minute, the filter paper strip was removed and the volume of the gingival crevicular fluid was measured with the aid of the Periotron (Harco Electronics, Ltd., Winnipeg, Canada). The volume of the fluid gathered from the crevice by the filter paper strip is translated by a unique transducer onto a digital readout screen. […] After reading on the meter, 1 µl. of trypsin (1.5 µg./ml.) was added to the filter paper (to activate any latent collagenase present) and after five minutes at room temperature 1 pI. of aprotonin was added. […] The tubes were centrifuged as described above and a 200 µl. aliquot of the clear supernatant was assayed for radioactivity.

[4] = test system: neutral proteases derived from human leukocytes; assay: Leukocyte Neutral Proteases Inhibitor Assay (3H/35S labeled proteoglycans entrapped in polyacrylamide beads); assay type: biochemical; details: for Percent Inhibition of Neutral Protease Activity ^3H: 3H label; for Percent Inhibition of Neutral Protease Activity ^35S: 35S label
Description: as §1
This assay system contained (total volume of 1 ml.) 60 mM Tris-CI, pH 7.4; 2.5 mM calcium chloride; 2.5 mM magnesium chloride; 2 mg. (dry weight) of polyacrylamide beads entrapped with labeled proteoglycans, and an aliquot of the leukocyte neutral protease preparation. The reaction mixture was incubated at 37°C. for 30 minutes in a shaking water bath. The reaction was terminated by the addition of 0.2 mi. of 5% SDS in 5% HCI (v/v). After five minutes at room temperature the mixture was centrifuged and the clear supernatant (0.6 ml.) was assayed for radioactivity. To determine the effect of the test compounds on degradation of proteoglycans by neutral proteases, various concentrations of the compounds were added to the reaction mixture. Appropriate blanks were included.

[5] = DMA = Dimethylacetamide, read-out: % Inhibition of Collagenase (DMA)
[6] = compound in distilled water, 16 hours at 37°C., repeat determinations, read-out: % Inhibition of Collagenase
[7] = compound in distilled water, 16 hours at 37°C., repeat determinations

SMILES: Cc1ccc(C(=O)Nc2ccc(S(=O)(=O)O)c3cc(S(=O)(=O)O)cc(S(=O)(=O)O)c23)cc1NC(=O)c1cccc(NC(=O)Nc2cccc(C(=O)Nc3cc(C(=O)Nc4ccc(S(=O)(=O)O)c5cc(S(=O)(=O)O)cc(S(=O)(=O)O)c45)ccc3C)c2)c1 [Suramin]
- inhibition of the activity of collagenase (collagenase): not inhibiting the action of collagenase

SMILES: Cc1cc(-c2ccc(/N=N/c3c(S(=O)(=O)O)cc4cc(S(=O)(=O)O)cc(N)c4c3O)c(C)c2)ccc1/N=N/c1c(S(=O)(=O)O)cc2cc(S(=O)(=O)O)cc(N)c2c1O [trypan blue]
- inhibition of the activity of collagenase (collagenase): inhibiting the activity of collagenase, or a proteinase contaminant in the collagenase preparation

SMILES: O=C(Nc1ccc(C(=O)Nc2ccc3cc(S(=O)(=O)O)cc(O)c3c2)cc1)Nc1ccc(C(=O)Nc2ccc3cc(S(=O)(=O)O)cc(O)c3c2)cc1 [6,6'-[Ureylenebis(p-phenylenecarbonylimino)]bis[4-hydroxy-2-naphthalenesulfonic acid acid], disodium salt]
- inhibition at 30 µg/mL [1, 5]: 96%
- inhibition at 30 µg/mL [1, 6]: 86%

SMILES: O=C(Nc1cccc(C(=O)Nc2ccc3cc(S(=O)(=O)O)cc(O)c3c2)c1)Nc1cccc(C(=O)Nc2ccc3cc(S(=O)(=O)O)cc(O)c3c2)c1 [6,6'-[Ureylenebis(m-phenylenecarbonylimino)]bis[4-hydroxy-2-naphthalenesulfonic acid]disodium salt]
- inhibition at 30 µg/mL [1, 5]: 81%

SMILES: O=C(Nc1cccc(C(=O)Nc2ccc3cc(S(=O)(=O)O)cc(O)c3c2)c1)Nc1cccc(C(=O)Nc2ccc3cc(S(=O)(=O)O)cc(O)c3c2)c1 [6,6'-[Ureylenebis(3,1-phenyl-enecarbonylimino)]bis[4-hydroxy] [6,6'-[Ureylenebis(m-phenylenecarbonylimino)]bis[4-hydroxy-2-naphthalenesulfonic acid]disodium salt]
- % Inhibition of Collagenase [1, 7]: 92% and 69%
- mcg. of Collagen degraded per mg. of dry gingiva ([2]; neutral proteases plus 30 mcg./ml. of compound): 60.4 mcg. per mg. of dry gingiva
- mcg. of Collagen degraded per mg. of dry gingiva ([2]; neutral proteases plus 50 mcg./ml. of compound): 27.4 mcg. per mg. of dry gingiva
- cpm Collagen Degraded/Unit Periotron Reading [3]: 16 ± 6 cpm
- Percent Inhibition of Neutral Protease Activity ^3H ([4]; 0.5 mcg./ml.): 0%
- Percent Inhibition of Neutral Protease Activity ^35S ([4]; 0.5 mcg./ml.): 0%
- Percent Inhibition of Neutral Protease Activity ^3H ([4]; 1.0 mcg./ml.): 17%
- Percent Inhibition of Neutral Protease Activity ^35S ([4]; 1.0 mcg./ml.): 31%
- Percent Inhibition of Neutral Protease Activity ^3H ([4]; 2.0 mcg./ml.): 21%
- Percent Inhibition of Neutral Protease Activity ^35S ([4]; 2.0 mcg./ml.): 37%
- Percent Inhibition of Neutral Protease Activity ^3H ([4]; 5.0 mcg./ml.): 47%
- Percent Inhibition of Neutral Protease Activity ^35S ([4]; 5.0 mcg./ml.): 74%
- Percent Inhibition of Neutral Protease Activity ^3H ([4]; 10.0 mcg./ml.): 63%
- Percent Inhibition of Neutral Protease Activity ^35S ([4]; 10.0 mcg./ml.): 91%

SMILES: O=C(Nc1cccc(C(=O)Nc2ccc(S(=O)(=O)O)c3cccc(O)c23)c1)Nc1cccc(C(=O)Nc2ccc(S(=O)(=O)O)c3cccc(O)c23)c1 [4,4'-[Ureylenebis(m-phenylenecarbonylimino)]bis-5-hydroxy-1-2-naphthalen,3sulfonic acid, disodium salt]
- % Inhibition of Collagenase ([1]; compound in distilled water, 16 hours at 37°C., repeat determinations, disodium salt): 84% and 69% and 60% and 55%

SMILES: Cc1ccc(C(=O)Nc2ccc3cc(S(=O)(=O)O)cc(O)c3c2)cc1NC(=O)Nc1cc(C(=O)Nc2ccc3cc(S(=O)(=O)O)cc(O)c3c2)ccc1C [6,6'-[Ureylenebis(4-methyl-3,1-phenylene)carbonyliminolbis[4-hydroxy-2-naphthalenesulfonic acid]-disodium salt]
- inhibition at 30 µg/mL [1, 6]: 73%

SMILES: O=C(Nc1ccc(C(=O)Nc2ccc3cc(S(=O)(=O)O)cc(O)c3c2)cc1)Nc1ccc(C(=O)Nc2ccc3cc(S(=O)(=O)O)cc(O)c3c2)cc1 [6,6-'Ureylenebis(p-phenylenecarbonylimino)bis[4-hydroxy-2-naphthalenesulfonic acid]-tetrasodium salt]
- % Inhibition of Collagenase [1, 7]: 92%
